Measurements from patent publication US20230285570A1, “THERAPEUTICALLY USEFUL CURE-PRO MOLECULES FOR E3 LIGASE MEDIATED DEGRADATION OF PROTEINS, AND METHODS OF MAKING AND USING THEM” (CORNELL UNIVERSITY, priority 2020, published 2023).
Entries after “also recorded” stand apart in the source; their conditions may differ.

Tests used:
Type in all cases: cell-based
caspase 3/7 [1] = assay: Caspase-Glo 3/7 assay, Molm-13 cells
Procedure: (§1) Caspase-glo® assay (Promega) was conducted following the manufacturer's recommendations. Cells were seeded at a density of 5000 cells/well in a white 96 well plates (Corning, #3917) in a total volume of 100 μl with respective monomers, combinations of BRD ligands together with E3 ligase ligands or vehicle control treatment. After a 24 h incubation, 100 μl of the […] substrate was added per well and luminescence was read on a Spectramax M5 (Molecular Devices).
(§2) Molm-13 (FIG. 76A) or Namalwa (FIG. 76B) cells (5×10^4) were treated for 24 hours with the compounds solubilized in DMSO in white 96 well plates (10 nM-10 μM solubilized in DMSO). FIG. 76 is a bar graph depiction of fold increase of apoptosis assessed via caspase 3/7 activity using the Caspase-Glo assay (Promega) described above.

caspase 3/7 [2] = assay: Caspase-Glo 3/7 assay, Namalwa cells; conditions: 24 h
Procedure: as §1
Namalwa cells (5×10^4) were treated for 24 hours with the compounds solubilized in DMSO. FIG. 57 is a bar graph depiction of fold increase of apoptosis assessed via caspase 3/7 activity using the Caspase-Glo assay (Promega) described above.
as §2

Molm-13 cells = assay: CellTiter-Glo cell viability, Molm-13 cells
Procedure: CellTiter-Glo® 2.0 Cell Viability Assay (Promega) was carried out following the manufacturer's recommendations. Cells were seeded at a density of 1000 cells/well in a white 96 well plates (Corning, #3917) in a total volume of 100 μl with respective monomers, combinations of BRD ligands together with E3 ligase ligands or vehicle control treatment. After a 72 h incubation, 100 ul of the CellTiter-Glo® substrate was added per well and luminescence was read on a Spectramax M5 (Molecular Devices). Dose-response curves were generated using Graphpad Prism software.
Molm-13 cells (1×10^4) were treated for 24 (FIG. 77A) or 72 (FIG. 77B) hours were treated in white 96 well plates with the compounds (10 nM-10 μM solubilized in DMSO). After indicated times cell viability was assessed using the CellTiter-Glo® Luminescent Cell Viability Assay (Promega) and the signal detected on a SpectraMax M5 (Molecular Devices).

BRD4 [3] = target: T1, BRD4 (Homo sapiens, UniProt O60885); assay: CURE-PRO-mediated BRD4 degradation in MCF7 cells, WES (ProteinSimple); parameters: endogenous in cells
Procedure: WES Simple analysis was performed on WES system (ProteinSimple-Biotechne) according to the manufacturer's instructions. Total protein concentrations of cell lysates were determined by the Pierce BCA kit (Thermo Fisher). 3 μL of 0.3 μg/μL of the protein lysate was loaded onto a 12- to 230-kDa WES assay plate (ProteinSimple) where 300 nL sample was withdrawn through a capillary, subjected to electrophoretic separation of proteins by size, and followed by the simultaneous, HRP-based detection of proteins using the Anti-Rabbit Detection Module (Proteinsimple: #DM-001). The electropherograms were checked then the automatic peak detection was manually corrected if it was required.
MCF7 cells (3×10^6) were treated for 4-24 hours continually (FIG. 72), or treated for 4 h, washed and incubated for a further 4-24 h with the compounds solubilized in DMSO. Compounds were added at 10 μM each. Cells were washed, lysed, and clarified by centrifugation. The total protein concentration was quantified by the BCA method (ThermoFisher Sciences). Standardized protein samples were electrophoresed and imaged as described in the WES Proteinsimple section above. FIG. 69 depicts the CURE-PRO-mediated BRD4 degradation for the BRD-E50 monomer, and VHL ligand, 8305.
MCF7 cells (3×10^6) were treated for 24 hours with the compounds solubilized in DMSO. CURE-PRO monomers were added at 10 μM each and the proteasomal inhibitors at 1 μM. Standardized protein samples were electrophoresed and imaged as described in the WES Proteinsimple section above. FIGS. 73 and 75 depicts the dependence of the proteasome for CURE-PRO-mediated BRD4 degradation.
MCF7 cells (3×10^6) were treated for 24 hours with the compounds solubilized in DMSO. CURE-PRO monomers were added at 10 μM. FIG. 74 depicts the CURE-PRO-mediated BRD4 degradation for the BRD-E50 monomer, and VHL ligand, 8305 combined in a 1:1 ratio after 24 h.

BRD4 [4] = target: T1, BRD4; assay: Summary of BRD4 degradation by CURE-PRO pairs, estimated from Western Blot or WES; parameters: endogenous in cells; conditions: Table 3, aryl-boronic acid BRD4 ligand + 8305
Outline: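 Namalwa, Ramos, HeLa, MCF7, HT29 or HCT116 cells treated 24 h with compounds in DMSO; RIPA lysates analysed by Western blot (ECL) or capillary WES immunodetection. Check mark denotes 30% to 70% or higher protein degradation.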

BRD4 [5] = target: T1, BRD4; assay: CURE-PRO-mediated BRD4 degradation in MCF7 cells, Western blot; parameters: endogenous in cells
Procedure: Namalwa, Ramosm HeLa, MCF7, or HT29 HCT116 cells (2.5-3×10^6) were treated for 24 hours with the indicated compounds solubilized in DMSO. The cells were washed in ice-cold PBS and were then lysed in RIPA lysis buffer (150 mM NaCl, 5 mM EDTA, 1% NP-40, 0.5% sodium deoxycholate, 0.1% SDS, 50 mM Tris, pH 8.0.) with Roche protease inhibitor complete cocktail and phosphatase inhibitors (10 mM sodium fluoride, 10 mM sodium pyrophosphate, 1 mM sodium orthovanadate and 20 mM β-glycerophosphate). The total protein concentrations were determined by Bradford Protein Assay (Pierce) and 10-20 μg of protein was loaded onto 4-15% Tris-Glycine gradient gels (Biorad). After standard gel electrophoresis, the separated proteins were transferred to PVDF membrane by wet transfer. The immunoblots were then blocked for 1 hour in 5% skim milk in TBST or 5% BSA in TBST, according to manufacturer's instructions, before an overnight incubation at 4° C. with indicated antibodies and membranes. Membranes were then incubated with the appropriate horseradish peroxidase-conjugated secondary antibodies (1:5,000 dilution) for 1 h at room temperature and the bands were visualized using the Clarity Max Western ECL Substrate (Biorad) and the ChemiDoc Imaging System (Biorad). Signal was detected with ECL Western Blotting Substrate (Pierce) and X-ray film processed with a Konica SRX-101 X-ray film processor or captured by Bio-Rad's Chemidoc Imaging system.
MCF7 cells (3×10^6) were treated for 24 h with the compounds solubilized in DMSO. Compounds were added at 100 nM-10 μM. Standardized protein samples were electrophoresed and imaged as described in the Immunoblotting section above. FIG. 69 depicts the CURE-PRO-mediated BRD4 degradation for the BRD-E9 monomer and VHL ligands 8305 combined in a 1:1 ratio, and FIG. 70 depicts the CURE-PRO-mediated BRD4 degradation for the BRD-E20 monomer and 8305.
MCF7 cells (3×10^6) were treated for 24 h with the compounds solubilized in DMSO. Compounds were added at 1 μM-10 μM. Standardized protein samples were electrophoresed and imaged as described in the Immunoblotting section above. FIG. 71 depicts the CURE-PRO-mediated BRD4 degradation for the BRD-E50 monomer and VHL ligands 8305 and 8304 combined in a 1:1 ratio.

HCT116 cells = assay: MTT toxicity of E3 ligase CURE-PRO monomers, HCT116 cells; conditions: monomer alone, HCT116, 10 nM-30 μM, 24 h
Procedure: CURE-PRO ligands for the E3 ubiquitin ligases were assessed for toxicity by MTT assays as described above. CURE-PRO monomers (10 nM-30 μM) were solubilized in DMSO and added in triplicate to cells (1×10^5 cells/well) seeded in 96 well plates on the previous day. HCT116 (FIG. 105A), MCF7 (FIG. 105B), and HT29 cells (FIG. 105C) were treated with the CURE-PRO monomers for 24 h.

[6] = single monomer alone, MCF7, 10 μM

| Structure (SMILES) | caspase 3/7 activation (caspase 3/7 [1]; 1:1 with VHL ligand 8305, Molm-13, 24 h, 10 nM-10 μM) | caspase 3/7 activation (caspase 3/7 [1]; co-treated with VHL298, Molm-13, 24 h) | caspase 3/7 activation (caspase 3/7 [2]; 1:1 with VHL ligand 8305, Namalwa, 10 nM-10 μM) | caspase 3/7 activation (caspase 3/7 [2]; co-treated with VHL298, Namalwa) | loss of cell viability versus monomers alone (Molm-13 cells; co-dosed 1:1 with VHL ligand 8305, Molm-13, 24 h and 72 h, 10 nM-10 μM) | cell viability (Molm-13 cells; co-treated with VHL298, Molm-13, 24 h and 72 h) | BRD4 degradation (BRD4 [3]; 1:1 with VHL ligand 8305, MCF7, 10 μM each, 4-24 h) | BRD4 degradation (BRD4 [3]; co-incubated with VHL ligand 8304, MCF7, 10 μM each) | BRD4 degradation (BRD4 [3]; [6]) | BRD4 degradation after VHL298 pre-incubation (BRD4 [3]; with 8305, 10 μM each, VHL298 preincubated at equimolar concentration, MCF7) | Degradation of BRD4, combination with VHL ligand 8305 (BRD4 [4]) | BRD4 degradation (BRD4 [5]; 1:1 with VHL ligand 8304, MCF7, 24 h, 1 μM-10 μM) | BRD4 degradation (BRD4 [5]; 1:1 with VHL ligand 8305, MCF7, 24 h, 100 nM-10 μM) | loss of viability (MTT) (HCT116 cells) |
| --- | --- | --- | --- | --- | --- | --- | --- | --- | --- | --- | --- | --- | --- | --- |
| CCNC(=O)C[C@@H]1N=C(c2ccc(Cl)cc2)c2cc(B(O)O)ccc2-n2c(C)nnc21 [BRD-E50, ((4S)-6-(4-chlorophenyl)-4-(2-(ethylamino)-2-oxoethyl)-1-methyl-4H-benzo[f][1,2,4]triazolo[4,3-a][1,4]diazepin-8-yl)boronic acid] | demonstrates activation of caspase 3/7; also recorded: marked caspase activation | does not increase caspase activity | demonstrates activation of caspase 3/7; also recorded: marked caspase activation | does not increase caspase activity | marked loss in cell viability when compared to monomer treatment alone; also recorded: a greater loss of cell viability | decreases levels of cell viability to similar levels of BRD-E50 treatment alone | directs degradation of BRD4 as early as 4 h; also recorded: marked BRD4 degradation after 4 h | No degradation is noted | there is no degradation of BRD4 | attenuates CURE-PRO mediated BRD4 degradation; also recorded: No degradation is noted; also recorded: inhibited CURE-PRO mediated degradation; also recorded: inhibits the degradation of BRD4 | √ (A black check mark indicates efficacy of 30% to 70% or higher protein degradation) | but not when VHL ligand 8304 is co-incubated; also recorded: no degradation is noted | there is degradation of BRD4; also recorded: marked BRD4 degradation | – |
| Cc1ncsc1-c1ccc(CNC(=O)[C@@H]2C[C@@H](O)CN2C(=O)[C@@H](NC(=O)c2cccc(O)c2O)C(C)(C)C)cc1 [compound 8305, (2S,4R)-1-((S)-2-(2,3-dihydroxybenzamido)-3,3-dimethylbutanoyl)-4-hydroxy-N-(4-(4-methylthiazol-5-yl)benzyl)pyrrolidine-2-carboxamide] | – | – | – | – | – | – | – | – | there is no degradation of BRD4 | – | – | – | – | loss of viability only noted at higher concentrations (30 μM); also recorded: Toxicity at higher concentrations |
